From patent US10426772B2, “Use of ergot alkaloids as an anthelmintic agent” (priority 2016, dated 2019)
Read-outs that look alike come from different tables or passages of the source.

Key:
Sm.5HTR [1] = target: Sm.5HTR (Schistosoma mansoni, UniProt A0A173FEI8); assay: cell-based
Method: HEK293 cells (ATCC CRL-1573.3) were cultured in growth media consisting of DMEM supplemented with GlutaMAX (Gibco cat #10566016)+10% heat inactivated fetal bovine serum and penicillin-streptomycin (100 units/mL, ThermoFisher). Stable cell lines for the pGloSensor-22F cAMP Plasmid (Promega) and schistosome 5HTRs in pcDNA3.1(−) were selected with hygromycin (200 μg/mL) and G418 (400 μg/mL). The correct identity of each stably expressed sequence was verified by isolating total RNA from each stable line (TRIzol Reagent, Ambion) and amplifying the sequence of interest with gene specific primers flanking the 5′ and 3′ regions of the cds (SuperScript® III One-Step RT-PCR System, Invitrogen). PCR products were ligated into a TA cloning vector (pGEM-T Easy, Promega) and sequenced.
HEK293 lines stably expressing both the 22F cAMP sensor and Sm.5HTR were cultured in growth media supplemented with 10% dialyzed FRS. For cAMP assays in 96 well format, cells cultured in T-75 flasks were trypsinized (TrypLE Express, Gibco) and plated in solid white 96 well plates (Costar cat #3917) the day prior to assay at a density of 2.5×10^4 cells/well. The following day media was removed and replaced with assay buffer consisting of HBSS buffered with HEPES (20 mM, pH 7.4)+BSA (0.1% w/v) and D-luciferin sodium salt (1 mg/mL, Gold Biotechnology). Plates were equilibrated at room temperature for 1 hour, at which point 3-Isobutyl-1-methylxanthine (IBMX 200 μM, Sigma Aldrich) was added. Plates were equilibrated a further 30 minutes prior to test compound addition. […] Readings performed in 384 well format were modified so that cells were assayed in suspension. Cells were grown to 70% confluence in T-75 flasks, trypsinized and pelleted (300 RCF×5 minutes). Media was removed and cells were resuspended in 25 mL assay buffer supplemented with IBMX (200 μM). A 96 channel semi-automated pipet (Eppendorf epMotion 96) delivered 55 μL of cell suspension per well (5000 cells/well) into solid white 384 plates (Corning 3574).

Sm.5HTR [2] = target: Sm.5HTR (Schistosoma mansoni, UniProt G4V5G4); assay type: cell-based; settings: for potency (IC50) at Sm.5HTR, lower right quadrant of FIG. 13: inhibition of cAMP generation
Method: (§1) HEK293 cells (ATCC CRL-1573.3) were cultured in DMEM supplemented with 10% fetal bovine serum (FBS), penicillin (100 units/mL), streptomycin (100 μg/mL), and L-glutamine (290 μg/mL). Cells were transiently transfected (ViaFect, Promega) as per the manufacturer's protocol at a density of 2×10^6 cells per T-25 cell-culture flask. Cells were transfected with plasmids encoding GloSensor (Promega) and either Sm.5HTR, (Smp_126730, GenBank accession number KF444051.1) or Sm.5HTRL (KX150867), both GPCRs being codon optimized for mammalian expression, or Hs.5HT7a (GenBank accession number NM_000872.4, R&D Systems) subcloned into pCS2(−). Cell culture reagents were from Invitrogen. Epitope tagged constructs were used to verify expression, and untagged constructs used for all luminescence assays.
(§2) For assays performed on adherent cells, HEK-293 cells were transferred one day post transfection to 96 well, solid white plates (Corning, cat #3917) coated with 0.01% poly-L-lysine (Sigma Aldrich) at a density of 5×10^4 cells/well in DMEM supplemented with 1% dialyzed FBS (Gibco). After overnight culture (37° C./5% CO2), media was decanted and replaced with 100 μL/well HBSS supplemented with 0.1% BSA, 20 mM HEPES (pH 7.4) and GloSensor™ reagent. Plates were allowed to equilibrate at room temperature for two hours prior to performing luminescence assays (GloMax-Multi Detection System plate reader, Promega). Conditions for individual assays were described as per figure legends. The standard assay to detect changes in cAMP utilized the F22 sensor in media supplemented with IBMX (200 μM). Ligands were added at a concentration of 20× per well for experiments (i.e., 5 μl of drug solution added to 100 μL of cells). […] For the resazurin reduction assay for cellular viability, cells were incubated with resazurin (final concentration, 10 μM) and tested ligands with fluorescence measurements (560 nm excitation/590 nm emission) made at 1.5 hours intervals.
(§3) The protocol for screening is shown schematically in FIG. 5A. HEK293 cells transiently transfected with either the human 5HT7 receptor (Hs.5HT7R) or the schistosome receptor (Sm.5HTR) were exposed to test ligands in a 96-well plate format. […] Luminescence was then read at a fixed time point (t=60 minutes, FIG. 5A). Hits were assigned as compounds that evoked a ≥50% decrease in luminescence output at the fixed time sampling point (FIG. 5B).

adult schistosomes = assay: Egg laying assay, adult schistosome pairs in vitro; assay type: cell-based, Schistosoma mansoni; settings: serotonin 100 μM, forskolin 100 μM, LSD 10 μM, nuciferine 10 μM, ergotamine 5 μM (FIG. 19F); eggs per worm pair/day over five days
Text: Female Swiss Webster mice infected with S. mansoni cerceria (NMRI strain) were sacrificed 49 days post infection by CO2 euthanasia. Adult schistosomes were recovered by perfusion with a solution of 0.85% sodium chloride+0.75% sodium citrate and dissection of the mesenteric vasculature. Harvested schistosomes were washed in RPMI 1640 Medium with GlutaMAX+5% heat inactivated FBS (Gibco) and Penicillin-Streptomycin (final concentration 100 units/mL, ThermoFisher cat #15140122).
For egg laying assays, adult schistosomes were transferred to 24 well plates the day after harvesting from mice (5 worm pairs in 2 mL media per well). Eggs were counted under a stereomicroscope daily, after which worms were transferred to a new well with fresh drug containing media. Egg counts were recorded for five days, and data processed as the mean number of eggs laid per worm pair/day. Measurements of egg dimensions were quantified using the “analyze>measure” function in ImageJ to record the length and width of individual eggs.

[3] = system: S. mansoni schistosomules; assay: Schistosomule contractility assay; assay type: cell-based; settings: Schistosoma mansoni
Method: FIGS. 14A-14F. […] Effects of selected ligands on schistosomules. […] A contractile cycle is defined when a deviation of ≥20% of the average body length (dashed lines) occurs.
Biomphalaria glabrata (M-line) snails exposed to Schistosoma mansoni miracidia (Strain PR-1) were obtained from BEI Resources (Cat. number NR-21961) and cercaria were shed following exposure to light (1.5 hours). Cercaria were manually transformed into schistosomula by vortexing (3×45 seconds, each separated by 3 minutes on ice) and tails were removed by gradient centrifugation (24 mL Percoll, 4 mL 10×EMEM, 1.5 ml penicillin-streptomycin, 1 mL of 1M HEPES in 0.85% NaCl, 9.5 ml distilled water) at 500 g/15 minutes at 4° C. Supernatant containing tails was discarded, and schistosomules were resuspended in Basch media and incubated (37° C., 5% CO2) overnight before conducting mobility assays. For contractility experiments, somules were incubated in 5-HT free Basch media to resolve a basal contractility rate. […] Schistosomules were incubated in 24 well plates (about 200 schistosomules/0.5 mL media per well) for 30 minutes (37° C./5% CO2) prior to acquiring videos of schistosome movement (1 minute recordings/well) using a Nikon Coolpix 5700 camera affixed to a Nikon Eclipse TS100 microscope (10× objective). The WrmTrck plugin for ImageJ was used to quantify worm mobility (El-Shehabi et al., 2012). Briefly, the major axis of each schistosomule body length was extracted from the raw output of WrmTrck and an average length was determined for the duration of the recording. Contractions were quantified by determining the number of episodes during which the worm body length deviated from the average by over 20%. S. mansoni protocols were approved by the Iowa State University Institutional Biosafety Committee.

Hs.5HT7R = target: T1, Hs.5HT7R (Homo sapiens, UniProt P34969); assay: GloSensor cAMP assay, HEK293 cells transiently transfected with Hs.5HT7R; assay type: cell-based; settings: inhibition of cAMP generation
T1 construct: host or cells: HEK293 (ATCC CRL-1573.3), transient, pCS2(−), co-transfected with GloSensor
Method: as §1, §2, §3

Sequence of Sm.5HTR (Schistosoma mansoni, UniProt G4V5G4) (G4V5G4 entry or part of it): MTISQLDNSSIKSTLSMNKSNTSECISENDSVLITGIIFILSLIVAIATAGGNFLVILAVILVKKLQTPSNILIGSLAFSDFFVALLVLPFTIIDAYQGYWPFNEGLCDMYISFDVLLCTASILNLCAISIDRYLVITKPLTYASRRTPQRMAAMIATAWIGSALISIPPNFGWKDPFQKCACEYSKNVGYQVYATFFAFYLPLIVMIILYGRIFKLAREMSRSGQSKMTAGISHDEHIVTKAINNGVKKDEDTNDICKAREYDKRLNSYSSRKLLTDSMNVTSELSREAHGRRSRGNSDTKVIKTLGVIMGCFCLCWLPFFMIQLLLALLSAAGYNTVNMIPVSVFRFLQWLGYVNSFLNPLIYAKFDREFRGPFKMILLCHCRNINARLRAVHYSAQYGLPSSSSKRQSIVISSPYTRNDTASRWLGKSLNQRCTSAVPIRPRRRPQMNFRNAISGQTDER
Sequence of Sm.5HTR (Schistosoma mansoni, UniProt A0A173FEI8) (A0A173FEI8 entry or part of it): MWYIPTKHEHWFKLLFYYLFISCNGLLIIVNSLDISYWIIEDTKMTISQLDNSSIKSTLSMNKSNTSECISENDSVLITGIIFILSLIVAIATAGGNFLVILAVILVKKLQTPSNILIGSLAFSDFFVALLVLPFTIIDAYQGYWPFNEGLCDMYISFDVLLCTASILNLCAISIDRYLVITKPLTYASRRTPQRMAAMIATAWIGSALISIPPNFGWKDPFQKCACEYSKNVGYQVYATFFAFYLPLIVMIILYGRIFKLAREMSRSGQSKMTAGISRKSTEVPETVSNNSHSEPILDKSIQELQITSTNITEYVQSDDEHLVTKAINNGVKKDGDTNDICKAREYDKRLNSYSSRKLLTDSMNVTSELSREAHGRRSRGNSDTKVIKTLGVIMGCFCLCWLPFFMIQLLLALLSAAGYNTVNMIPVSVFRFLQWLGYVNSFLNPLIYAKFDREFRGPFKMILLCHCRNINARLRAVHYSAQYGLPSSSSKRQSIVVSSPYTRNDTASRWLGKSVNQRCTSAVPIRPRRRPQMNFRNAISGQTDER
T1 sequence (P34969 1-445 isoform P34969-2): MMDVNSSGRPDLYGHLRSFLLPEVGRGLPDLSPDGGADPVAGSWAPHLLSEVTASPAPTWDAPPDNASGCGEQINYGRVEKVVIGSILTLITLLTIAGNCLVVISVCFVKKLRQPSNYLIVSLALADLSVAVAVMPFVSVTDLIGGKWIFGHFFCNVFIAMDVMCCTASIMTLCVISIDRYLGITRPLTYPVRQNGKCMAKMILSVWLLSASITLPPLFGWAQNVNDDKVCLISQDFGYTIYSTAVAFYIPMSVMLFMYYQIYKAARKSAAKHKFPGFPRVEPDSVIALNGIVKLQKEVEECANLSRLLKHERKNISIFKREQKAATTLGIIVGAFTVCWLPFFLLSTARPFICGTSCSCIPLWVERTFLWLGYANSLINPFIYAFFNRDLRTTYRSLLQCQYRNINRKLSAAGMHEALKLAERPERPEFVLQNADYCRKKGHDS

C[C@@H](CO)NC(=O)[C@@H]1C=C2c3cccc4[nH]cc(c34)C[C@H]2N(C)C1 [ergometrine]
Emax (Sm.5HTR [1]; HEK293, agonist read, 45 minutes, read-out: Sm.5HTR Emax): 61 ± 4%

CNCCC(Oc1ccc(C(F)(F)F)cc1)c1ccccc1 (stereo not shown) [fluoxetine]
selectivity Sm.5HTR versus Hs.5HT7R (IC50 (Hs.5HT7R)/IC50 (Sm.5HTR)), in words (Sm.5HTR [2]): preferential selectivity toward Sm.5HTR

C=C[C@@]1(C)CC(=O)[C@]2(O)[C@@]3(C)[C@@H](O)CCC(C)(C)[C@@H]3[C@H](O)[C@H](OC(C)=O)[C@@]2(C)O1 [forskolin]
decrease of egg laying (adult schistosomes): 62%

COc1cc2c3c(c1OC)-c1ccccc1C[C@H]3N(C)CC2 [nuciferine]
decrease of egg laying (adult schistosomes): no effect

COc1cc2c(cc1OC)-c1cc3ccc(OC)c(OC)c3c[n+]1CC2 [palmatine]
selectivity Sm.5HTR versus Hs.5HT7R (IC50 (Hs.5HT7R)/IC50 (Sm.5HTR)), in words (Sm.5HTR [2]; antagonism of 5-HT evoked cAMP, FIGS. 7, 12, 13): decreased potency and selectivity for Sm.5HTR

CCN(CC)C(=O)N[C@H]1C[C@@H]2c3cccc4[nH]cc(c34)C[C@H]2N(C)C1 [terguride]
IC50 (Sm.5HTR [1]; 5-HT 500 nM, read-out: Sm.5HTR IC50 (antagonist)): 0.4 ± 0.05 µM | agonist activity at Sm.5HTR, in words (Sm.5HTR [1]; FIG. 18C): completely eliminates agonist activity

COc1cc2c(cc1OC)C1CC(=O)C(CC(C)C)CN1CC2 (stereo not shown) [tetrabenazine]
inhibition at 100 µM ([3]; read-out: inhibition of 5-HT evoked contractility): ~50% | potency (IC50) at Hs.5HT7R, lower right quadrant of FIG. 13 (Hs.5HT7R): supra-μM potency | selectivity Sm.5HTR versus Hs.5HT7R (IC50 (Hs.5HT7R)/IC50 (Sm.5HTR)), in words (Sm.5HTR [2]): selectivity for Sm.5HTR retained | potency (IC50) at Sm.5HTR, lower right quadrant of FIG. 13 (Sm.5HTR [2]): sub-μM potency

COc1ccc2cc1Oc1ccc(cc1)C[C@H]1c3cc(c(OC)cc3CCN1C)Oc1c(OC)c(OC)cc3c1[C@H](C2)N(C)CC3 [tetrandrine]
IC50 ([3]; read-out: IC50, inhibition of 5-HT evoked contractions): ≤ 1 µM | potency (IC50) at Hs.5HT7R, lower right quadrant of FIG. 13 (Hs.5HT7R): supra-μM potency | potency (IC50) at Sm.5HTR, lower right quadrant of FIG. 13 (Sm.5HTR [2]): sub-μM potency

CC(C)C[C@H]1C(=O)N2CCC[C@H]2[C@]2(O)O[C@](NC(=O)[C@@H]3C=C4c5cccc6[nH]cc(c56)C[C@H]4N(C)C3)(C(C)C)C(=O)N12 [α-ergocryptine]
antagonist activity at Sm.5HTR, in words (Sm.5HTR [1]; FIG. 18B): loss of antagonist activity | Sm.5HTR Emax (Sm.5HTR [1]; agonist read, 45 minutes): negligible activity
